Read-outs that look alike come from different tables or passages of the source.
Assays:
Assay type in all cases: cell-based
West Nile virus = experiment: Antiviral activity, West Nile virus (Vero cells)
[1] = system: primary acute myeloid leukemia (AML) blast cells; experiment: Primary AML blast cell assay with and without uridine; conditions: uridine 0, 3, 10, 30, or 100 µM
Procedure: FIG. 5 is a plot showing the fraction of total blasts relative to DMSO control vs PTC299 concentration in nM, from an assay of the ability of PTC299 to suppress DHODH activity in the presence of increasing concentrations of uridine (0, 3, 10, 30, or 100 µM) .
The ability of PTC299 to inhibit DHODH was further tested using primary acute myeloid leukemia (AML) blast cells that are reliant upon the de novo pyrimidine nucleotide pathway to obtain pyrimidine nucleotides.

[2] = system: PBMCs plus venular endothelial cells (sAg); experiment: BioMAP profiling, SAg system; conditions: for inhibition at 0.01 µM: 10 nM; for inhibition at 0.1 µM: 100 nM
Procedure: The effect of PTC299 on cytokine production was assessed using BioMAP profiling (BioSeek, now part of Eurofins). The BioMAP system is comprised of complex co-cultures of primary peripheral blood mononuclear cells (PBMCs) with other cell types including B cells, fibroblasts, and endothelial cells allowing for the measurement of physiologically relevant biomarker readouts of the activity of a compound. Using this system, cytokine production was evaluated in the following models of primary cell disease models: • Peripheral blood mononuclear cells (PBMCs) plus venular endothelial cells (sAg) • PBMCs plus B cells (BT) • PBMCs plus fibroblasts (HDFSAg) • TH2 cells plus venular endothelial cells (/TH2).
Abbreviations in Table 4: BCR, B-cell receptor; BT System, co-culture of CD19+ B cells and PBMC that utilizes BCR stimulation and sub-mitogenic TCR stimulation; HDFSAg system, co-culture of human primary dermal fibroblasts and PBMC that is stimulated with sub-mitogenic TCR levels; IL, interleukin; PBMC, Peripheral Blood Mononuclear Cell; SAg system, co-culture of endothelial cells and PBMC stimulated with mitogenic levels of TCR ligands; TCR, T-cell receptor; /TH2 system, co-culture of endothelial cells and Th2 blasts stimulated with TCR ligands and cytokines; Th2, T helper type 2; VEGF, vascular endothelial growth factor.

SARS-CoV-2 = SARS-CoV-2 titer in Vero cells, TCID50 assay
[3] = Severe acute respiratory syndrome coronavirus 2, Vero cells, extended dose response 0.003-1000 nM

With COc1ccc([C@H]2c3[nH]c4ccc(Cl)cc4c3CCN2C(=O)Oc2ccc(Cl)cc2)cc1 [PTC299, 4-chlorophenyl (S)-6-chloro-1-(4-methoxyphenyl)-1,3,4,9-tetrahydro-2H-pyrido[3,4-b]indole-2-carboxylate] the EC50 (West Nile virus) was 10 nM, the “effect of exogenous uridine on PTC299-dependent cytotoxicity” value [1] was “reversal of the effects of PTC299-dependent cytotoxicity by the addition of exogenous uridine” and the inhibition at 0.01 µM ([2]; read-out: % Inhibition IL-8) was 27%. The inhibition at 0.01 µM ([2]; read-out: % Inhibition MCP-1) was 31%, the inhibition at 0.1 µM ([2]; read-out: % Inhibition CD40) was 29% and the inhibition at 0.1 µM ([2]; read-out: % Inhibition IL-8) was 29%. For the same molecule, the inhibition at 0.1 µM ([2]; read-out: % Inhibition MCP-1) was 45%, the inhibition at 0.1 µM ([2]; read-out: % Inhibition Proliferation) was 23% and the “drop in titer versus untreated cells” value (SARS-CoV-2; Example 11, 1, 0.5, or 0.25 µM, 24 hours post infection) was “three log drop in titer”. For the same molecule, the EC50 (SARS-CoV-2; [3]) was 2.6 nM, the EC90 (SARS-CoV-2; [3]) was 53 nM and the viral replication (SARS-CoV-2; cells preincubated for 18 hours) was “inhibited viral replication”. The “effect of excess uridine on inhibition of SARS-CoV-2 replication” value (SARS-CoV-2; excess uridine (100 uM)) was “overcame inhibition of SARS-CoV-2 replication” and the “reduction of viral replication” value (SARS-CoV-2; pre-incubation 2 hours with 250, 500, and 1000 nM, after 24 hours, all dose levels) was “about 3 orders of magnitude”.

Reference: patent US20230172915A1, “DHODH INHIBITOR FOR THE TREATMENT OF COVID-19” (priority 2020, published 2023)
